Data: ChEMBL document CHEMBL5604063, “ASAP - DENV-2 NS2B-NS3 protease fluorescence dose response” (2024)
“And” between values parts separate entries of the source, which are not always exact repeats. Identical values can stand only once.

What was measured:
Genome polyprotein [1] = molecular target: T1, Genome polyprotein (dengue virus type 2, UniProt P29990); type: functional, Thailand/16681/1984
Genome polyprotein [2] = molecular target: T1, Genome polyprotein; type: functional, Thailand/16681/1984; remark: listed apart in the source

T1 sequence (P29990 1346-1475 limits assumed): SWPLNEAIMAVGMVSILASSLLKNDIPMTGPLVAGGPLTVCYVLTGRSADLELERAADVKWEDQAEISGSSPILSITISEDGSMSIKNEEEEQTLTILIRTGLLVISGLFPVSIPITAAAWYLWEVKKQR
T1 sequence (P29990 1476-2093 limits assumed): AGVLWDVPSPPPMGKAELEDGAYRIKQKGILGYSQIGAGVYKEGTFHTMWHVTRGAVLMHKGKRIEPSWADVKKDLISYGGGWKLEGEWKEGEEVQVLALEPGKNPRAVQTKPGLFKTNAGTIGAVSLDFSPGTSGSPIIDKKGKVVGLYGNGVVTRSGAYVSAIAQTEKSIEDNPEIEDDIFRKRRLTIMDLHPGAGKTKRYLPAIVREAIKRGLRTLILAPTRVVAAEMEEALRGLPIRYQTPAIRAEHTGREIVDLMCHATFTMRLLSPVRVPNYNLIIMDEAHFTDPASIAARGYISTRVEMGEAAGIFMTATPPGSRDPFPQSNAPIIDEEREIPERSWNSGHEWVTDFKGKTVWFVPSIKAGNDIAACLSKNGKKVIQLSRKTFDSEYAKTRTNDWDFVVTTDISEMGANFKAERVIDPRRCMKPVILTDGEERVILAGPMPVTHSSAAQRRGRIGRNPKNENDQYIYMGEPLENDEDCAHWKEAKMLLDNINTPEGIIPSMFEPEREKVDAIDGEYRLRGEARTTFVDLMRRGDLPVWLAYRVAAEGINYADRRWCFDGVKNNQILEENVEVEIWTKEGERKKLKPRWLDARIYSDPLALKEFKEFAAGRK

Row | SMILES | IC50 (Genome polyprotein [1]) | IC50 (Genome polyprotein [2])
1 | Cc1cc(C(=O)Nc2cccc(CN)c2)c2cnn(-c3ccc(F)cc3)c2n1 | > 100 µM | > 99.5 µM
2 | COCc1cc(NC(=O)OCc2ccccc2)cc(C(=O)Nc2cccc(CN)c2)c1 | > 100 µM | > 99.5 µM
3 | CC(C)c1cc(NC(=O)OCc2ccccc2)cc(C(=O)Nc2cccc(CN)c2)c1 | > 100 µM | 66.9 µM
4 | CN(C)Cc1cc(Cl)cc(C(=O)Nc2cccc(CN)c2)c1 | > 100 µM | > 99.5 µM
5 | CCn1c(=O)c(N2CC[C@H](CO)C2)nc2ccc(C(=O)N(C)C)cc21 | > 100 µM | > 99.5 µM
6 | NCc1ccc(I)c(NC(=O)c2cc(Cl)cc(NC(=O)OCc3ccccc3)c2)c1 | > 100 µM | 52.1 µM
7 | O=C(Nc1cc(Cl)cc(C(=O)Nc2cccc([C@H]3C[C@H]3C(=O)O)c2)c1)OCc1ccccc1 | 12.3 µM (3×) and 10.2 µM and 15.6 µM and 14.8 µM | 19.6 µM and 25.7 µM and 26.9 µM and 24.8 µM
8 | NCc1cccc(NC(=O)c2cc(NC(=O)OCc3ccccc3)cc(C3CC3)c2)c1 | > 100 µM | 76.1 µM
9 | C[C@H]1CN(C)C[C@@H](C(=O)Nc2cccc(CN)c2)O1 | > 100 µM | > 99.5 µM
10 | Cc1cc(NC(=O)OCc2ccccc2)cc(C(=O)Nc2cccc(CN)c2)c1 | > 100 µM | > 99.5 µM
11 | O=C(O)COc1cccc(NC(=O)c2cc(Cl)cc(NC(=O)OCc3ccccc3)c2)c1 | 28 µM and 22.5 µM | 45.5 µM
12 | CNC(=O)[C@H](Nc1cccc(N)n1)c1cc(Cl)cc(CN)c1 | > 100 µM | > 99.5 µM
13 | C[C@H]1C[C@@H](C(=O)Nc2cccc(CN)c2)CC(=O)N1 | > 100 µM | > 99.5 µM
14 | O=C1NC[C@H](c2ccc(OCc3ccccc3)c(Br)c2)N1C(=O)OCc1ccccc1 | > 100 µM | > 99.5 µM
15 | O=Cc1cc(Cl)cc(NC(=O)OCc2ccccc2)c1 | > 100 µM | > 99.5 µM
16 | CCn1c(=O)c(N2CC[C@H](CO)C2)nc2cc(C(=O)O)ccc21 | > 100 µM | > 99.5 µM
17 | NCc1cccc(NC(=O)C2CCNCC2)c1 | > 100 µM | > 99.5 µM
18 | NCc1cc(Br)cc(NC(=O)c2cc(Cl)cc(NC(=O)OCc3ccccc3)c2)c1 | > 100 µM | > 99.5 µM
19 | CC1(C)CCC(F)(F)C[C@H]1C(=O)Nc1cccc(CN)c1 | > 100 µM | > 99.5 µM
20 | CCn1ncc2c(C(=O)Nc3cccc(CN)c3)cc(C)nc21 | > 100 µM | > 99.5 µM

Row | SMILES | IC50 (Genome polyprotein [1]) | IC50 (Genome polyprotein [2])
21 | O=C(Nc1cc(Cl)cc(C(=O)Nc2cccc(CN3CCCC3=O)c2)c1)OCc1ccccc1 | > 100 µM | > 99.5 µM
22 | O=C(Nc1cc(Cl)cc(C(=O)Nc2ccc3c(c2)OCCNC3)c1)OCc1ccccc1 | > 100 µM | > 99.5 µM
23 | CCn1c(=O)c(N2CC[C@H](CO)C2)nc2ccc(C(=O)NCc3ccccc3)cc21 | > 100 µM | 95.1 µM
24 | NCc1cccc(NC(=O)c2cc(NC(=O)OCc3ccccc3)cc(C(F)(F)F)c2)c1 | > 100 µM | > 99.5 µM
25 | CN(C)CCc1ccc(NC(=O)c2cc(Cl)cc(NC(=O)OCc3ccccc3)c2)cc1 | > 100 µM | > 99.5 µM
26 | N#CCc1cccc(NC(=O)c2cc(Cl)cc(NC(=O)OCc3ccccc3)c2)c1 | > 100 µM | > 99.5 µM
27 | CCn1c(=O)c(N2CC[C@H](CO)C2)nc2cc(C(=O)N(C)C)ccc21 | > 100 µM | > 99.5 µM
28 | COc1ccc2nc(C)cc(C(=O)Nc3cccc(CN)c3)c2c1 | > 100 µM | > 99.5 µM
29 | CC(C)(C)OC(=O)NCc1ccc(I)c(NC(=O)c2cc(Cl)cc(NC(=O)OCc3ccccc3)c2)c1 | > 100 µM | > 99.5 µM
30 | NCc1cccc(NC(=O)c2cncc(Cl)c2)c1 | > 100 µM | > 99.5 µM
31 | CNC(=O)[C@H](Nc1ccccn1)c1cc(Cl)cc(CN)c1 | > 100 µM | > 99.5 µM
32 | O=C(Nc1cc(Cl)cc(C(=O)Nc2ccc(CCN3CCOCC3)cc2)c1)OCc1ccccc1 | > 100 µM | > 99.5 µM
33 | Cc1cc(C(=O)Nc2cccc(CN)c2)c2sc(N)nc2n1 | > 100 µM | > 99.5 µM
34 | Cc1cc(C(=O)Nc2cccc(CN)c2)c2c(C)n[nH]c2n1 | > 100 µM | > 99.5 µM
35 | Cc1cc(C(=O)Nc2cccc(CN)c2)cc(NCc2cnn(C)c2)n1 | > 100 µM | > 99.5 µM
36 | O=C(Nc1ccc2c(c1)CNC2)c1cc(O)nc(C2CC2)c1 | > 100 µM | > 99.5 µM
37 | N[C@H]1CC[C@H](c2ccc(NC(=O)c3cc(Cl)cc(NC(=O)OCc4ccccc4)c3)cc2)C1 | 84.2 µM | 10.2 µM and 8.32 µM and 13 µM
38 | CCn1c(=O)c(N2CC[C@H](CO)C2)nc2cc(C(=O)NS(C)(=O)=O)ccc21 | > 100 µM | > 99.5 µM
39 | CCNC(=O)c1ccc2nc(N3CC[C@H](CO)C3)c(=O)n(CC)c2c1 | > 100 µM | 90.4 µM
40 | Cc1cc(C(=O)N[C@H](CC(=O)Nc2cccc(CN)c2)c2ccc(OCc3ccccc3)c(Br)c2)sn1 | > 100 µM | 16.8 µM and 25.3 µM

Row | SMILES | IC50 (Genome polyprotein [1]) | IC50 (Genome polyprotein [2])
41 | CS(=O)(=O)Nc1cccc(NC(=O)c2cc(Cl)cc(NC(=O)OCc3ccccc3)c2)c1 | > 100 µM | > 99.5 µM
42 | CCn1c(=O)c(N2CC[C@H](CO)C2)nc2cc(C(=O)NCc3ccccc3)ccc21 | > 100 µM | > 99.5 µM
43 | CN(C)CC[C@H](NC(=O)c1cc(Cl)cc(NC(=O)OCc2ccccc2)c1)c1ccccc1 | > 100 µM | > 99.5 µM
44 | NCc1cc(NC(=O)c2cc(Cl)cc(NC(=O)OCc3ccccc3)c2)cc(C2CC2)c1 | > 100 µM | 72 µM
45 | CCOc1cccc(-c2ccc(NS(=O)(=O)c3cc(F)c(Cl)cc3C(=O)O)cc2)c1 | 7.73 µM | 9.4 µM
46 | CS(=O)(=O)c1cccc(NC(=O)c2cc(Cl)cc(NC(=O)OCc3ccccc3)c2)c1 | > 100 µM | > 99.5 µM
47 | C[C@H]1CNC[C@@H]1c1ccc(NC(=O)c2cc(Cl)cc(NC(=O)OCc3ccccc3)c2)cc1 | 96.6 µM | 22.4 µM
48 | CCn1c(=O)c(N2CC[C@@H](CO)C2)nc2ccc(C(=O)O)cc21 | > 100 µM | > 99.5 µM
49 | CCNC(=O)c1ccc2c(c1)nc(N1CC[C@H](CO)C1)c(=O)n2CC | > 100 µM | > 99.5 µM
50 | O=C(Nc1cc(Cl)cc(C(=O)Nc2ccc([C@]34CNC[C@H]3C4)cc2)c1)OCc1ccccc1 | > 100 µM | > 99.5 µM
51 | C[C@H]1Oc2ccc(NC(=O)c3cc(Cl)cc(NC(=O)OCc4ccccc4)c3)cc2NC1=O | > 100 µM | > 99.5 µM
52 | NCc1cccc(NC(=O)[C@H]2CCOC3(CCC3)C2)c1 | > 100 µM | > 99.5 µM
53 | C[C@H]1CN(Cc2ccccc2)C[C@@H](C(=O)Nc2cccc(CN)c2)O1 | > 100 µM | > 99.5 µM
54 | COC1(C(=O)N[C@H](CC(=O)Nc2cccc(CN)c2)c2ccc(OCc3ccccc3)c(Br)c2)CC1 | > 100 µM | > 99.5 µM
55 | COC(=O)[C@]12CC[C@](C(=O)Nc3cccc(CN)c3)(COC1)C2 | > 100 µM | > 99.5 µM
56 | CN1CCc2c(cccc2NC(=O)c2cc(Cl)cc(NC(=O)OCc3ccccc3)c2)C1 | > 100 µM | > 99.5 µM
57 | N#Cc1cc(NC(=O)OCc2ccccc2)cc(C(=O)Nc2cccc(CN)c2)c1 | > 100 µM | > 99.5 µM
58 | Cc1cc(C(=O)Nc2cccc(CN)c2)c2c(n1)CCCC2 | > 100 µM | > 99.5 µM
59 | NCc1cccc(NC(=O)[C@@H]2CCCCN2)c1 | > 100 µM | > 99.5 µM
60 | C[C@H]1C[C@@H](C(=O)Nc2cccc(CN)c2)CCO1 | > 100 µM | > 99.5 µM
